Results as given in publication PMC6340895 (Protein & Cell, 2019).
pIC50: −log10 of the molar value.

Tests used:
[1] = test system: pseudotype of GTOV, JUNV, MACV, SABV, CHAPV, LCMV, LUJV, MOPV, EBOV, and MARV; assay type: cell-based
CHAPVpv = test: microbe, parasite or virus in culture; assay type: cell-based, Chapare virus (CHAPV); details: Mammarenavirus chapareense, read-out: CHAPVpv IC50
JUNVpv = test: organism not typed; assay type: cell-based, Junín virus (JUNV); details: read-out: JUNVpv IC50
SABVpv = test: organism not typed; assay type: cell-based, Sabiá virus (SABV); details: read-out: SABVpv IC50
TfR1 = assay type: cell-based
[2] = test system: pseudotype of NW pathogenic arenaviruses; assay type: cell-based
LASV = details: cited from earlier work

Structure (SMILES)	CC50 (in vitro) [µM]	further results
COc1ccc(CC(=O)N/N=C(\C)c2ccc(NC(=O)c3ccco3)cc2)cc1 [compound 54, O=C(CC1=CC=C(OC)C=C1)N/N=C(C)/C2=CC=C(NC(C3=CC=CO3)=O)C=C2]	> 30	
C/C(=N\NC(=O)CCc1ccc(F)cc1)c1ccc(NC(=O)c2ccco2)cc1 [compound 26, O=C(CCC1=CC=C(F)C=C1)N/N=C(C)/C2=CC=C(NC(C3=CC=CO3)=O)C=C2]	> 30	
C/C(=N\NC(=O)CCc1cccc([N+](=O)[O-])c1)c1ccc(NC(=O)c2ccco2)cc1 [compound 25, O=C(CCC1=CC([N+]([O-])=O)=CC=C1)N/N=C(C)/C2=CC=C(NC(C3=CC=CO3)=O)C=C2]	> 30	
C/C(=N\NC(=O)CCc1ccc([N+](=O)[O-])cc1)c1ccc(NC(=O)c2ccco2)cc1 [compound 24, O=C(CCC1=CC=C([N+]([O-])=O)C=C1)N/N=C(C)/C2=CC=C(NC(C3=CC=CO3)=O)C=C2]	> 30	
COc1ccc(CCC(=O)N/N=C(\C)c2ccc(NC(=O)c3ccco3)cc2)cc1 [compound 22, O=C(CCC1=CC=C(OC)C=C1)N/N=C(C)/C2=CC=C(NC(C3=CC=CO3)=O)C=C2]	> 30	
Cc1ccc(CCC(=O)CCC(C)c2ccc(NC(=O)c3ccco3)cc2)cc1 (stereo not shown) [compound 72]		Antiviral specificity across pseudotype panel [1]: largely maintained LASV specificity
COc1ccc(CCC(=O)N/N=C(\C)c2ccc(NC(=O)c3ccco3)cc2)c(OC)c1 [compound 28, O=C(CCC1=C(OC)C=C(OC)C=C1)N/N=C(C)/C2=CC=C(NC(C3=CC=CO3)=O)C=C2]	> 30	
C/C(=N\NC(=O)CCc1ccccc1)c1ccc(NC(=O)c2ccco2)cc1 [compound 3, O=C(CCC1=CC=CC=C1)N/N=C(C)/C2=CC=C(NC(C3=CC=CO3)=O)C=C2]	> 30	
C/C(=N\NC(=O)CCc1ccccc1C)c1ccc(NC(=O)c2ccco2)cc1 [compound 20, O=C(CCC1=C(C)C=CC=C1)N/N=C(C)/C2=CC=C(NC(C3=CC=CO3)=O)C=C2]	> 30	
C/C(=N\NC(=O)CCc1ccc(C(C)(C)C)cc1)c1ccc(NC(=O)c2ccco2)cc1 [compound 57, O=C(CCC1=CC=C(C(C)(C)C)C=C1)N/N=C(C)/C2=CC=C(NC(C3=CC=CO3)=O)C=C2]	> 30	pIC50 (CHAPVpv): 7.05; pIC50 (JUNVpv): 7.02; pIC50 (SABVpv): 6.61; Cell surface expression of TfR1 (TfR1): did not down-regulate; Effect on binding of NW pathogenic viruses [2]: no effect
C/C(=N\NC(=O)C1CC1c1ccccc1)c1ccc(NC(=O)c2ccco2)cc1 (stereo not shown) [ST-161]		Antiviral specificity (LASV): LASV specific
C/C(=N\NC(=O)CCc1ccccc1F)c1ccc(NC(=O)c2ccco2)cc1 [compound 10, O=C(CCC1=C(F)C=CC=C1)N/N=C(C)/C2=CC=C(NC(C3=CC=CO3)=O)C=C2]	> 30	
C/C(=N\NC(=O)CCc1cccc(C)c1)c1ccc(NC(=O)c2ccco2)cc1 [compound 21, O=C(CCC1=CC(C)=CC=C1)N/N=C(C)/C2=CC=C(NC(C3=CC=CO3)=O)C=C2]	> 30	Antiviral specificity across pseudotype panel [1]: largely maintained LASV specificity
C/C(=N\NC(=O)Cc1ccc(Cl)cc1Cl)c1ccc(NC(=O)c2ccco2)cc1 [compound 8, O=C(CC1=C(Cl)C=C(Cl)C=C1)N/N=C(C)/C2=CC=C(NC(C3=CC=CO3)=O)C=C2]	> 30	
C/C(=N\NC(=O)CCc1ccc(Br)cc1)c1ccc(NC(=O)c2ccco2)cc1 [compound 29, O=C(CCC1=CC=C(Br)C=C1)N/N=C(C)/C2=CC=C(NC(C3=CC=CO3)=O)C=C2]	> 30	Antiviral specificity across pseudotype panel [1]: largely maintained LASV specificity
C/C(=N\NC(=O)CCCc1ccc(C)cc1)c1ccc(NC(=O)c2ccco2)cc1 [compound 23, O=C(CCCC1=CC=C(C)C=C1)N/N=C(C)/C2=CC=C(NC(C3=CC=CO3)=O)C=C2]	> 30	
C/C(=N\NC(=O)Cc1ccccc1)c1ccc(NC(=O)c2ccco2)cc1 [compound 7, O=C(CC1=CC=CC=C1)N/N=C(C)/C2=CC=C(NC(C3=CC=CO3)=O)C=C2]	> 30	
C/C(=N\NC(=O)CCCc1ccccc1)c1ccc(NC(=O)c2ccco2)cc1 [compound 56, O=C(CCCC1=CC=CC=C1)N/N=C(C)/C2=CC=C(NC(C3=CC=CO3)=O)C=C2]	> 30	
C/C(=N\NC(=O)CCc1ccccc1C(F)(F)F)c1ccc(NC(=O)c2ccco2)cc1 [compound 30, O=C(CCC1=C(C(F)(F)F)C=CC=C1)N/N=C(C)/C2=CC=C(NC(C3=CC=CO3)=O)C=C2]	> 30	
C/C(=N\NC(=O)CCCCc1ccccc1)c1ccc(NC(=O)c2ccco2)cc1 [compound 27, O=C(CCCCC1=CC=CC=C1)N/N=C(C)/C2=CC=C(NC(C3=CC=CO3)=O)C=C2]	> 30	
C/C(=N\NC(=O)CCc1ccc(C)cc1)c1ccc(NC(=O)c2ccco2)cc1 [compound 9, O=C(CCC1=CC=C(C)C=C1)N/N=C(C)/C2=CC=C(NC(C3=CC=CO3)=O)C=C2]	> 30	
